US6828321B2, “1,2,4-Benzotriazine oxides as radiosensitizers and selective cytotoxic agents” (priority 1986, dated 2004)
Like-named read-outs stand apart in the source and are kept apart here.

What was measured:
[1] = test system: hypoxic cells in culture; experiment: Radiosensitivity in vitro: drug concentration giving a sensitizer enhancement ratio of 1.6; type: cell-based; conditions: concentration of drug necessary to produce a sensitizer enhancement ratio of 1.6 of hypoxic cells in culture
Source text: The results of assays to determine the concentration of drug necessary to produce a sensitizer enhancement ratio of 1.6 of hypoxic cells in culture are as follows: […]

[2] = Polarographic half-wave reduction potential; type: physicochemical; conditions: Britton & Robinson pH 7.4 buffer, dropping mercury electrode
[3] = test system: HA-1 cells; experiment: Hypoxic versus aerobic cytotoxicity from survival curves of HA-1 cells; type: cell-based; conditions: for cytotoxicity against hypoxic HA-1 tumor cells in vitro compared to 22 / RHT (Relative Hypoxic Cytoxicity): hypoxic conditions; for RHT (Relative Hypoxic Cytoxicity): ratio of equitoxic concentrations of 22:analog; for RHT (Relative Hypoxic Cytoxicity) / HCR (Hypoxic Cytoxicity Ratio): HA-1 cells; for HCR (Hypoxic Cytoxicity Ratio): ratio of equitoxic concentrations of each analog, hypoxic:aerobic conditions
[4] = Octanol-water partition coefficient (method of Fujita et al.); type: physicochemical; conditions: pH 7.4 buffer
[5] = Solubility; type: physicochemical
[6] = Determination of LD50; type: in vivo; conditions: mouse, in vivo; Balb/c female mice 3 months of age; ip (or iv) injection
Method: (§1) LD50 is determined in BALB/c female mice (weighing 20-25 g) following intraperitoneal (ip) injection, unless the compound tested has low lipophilicity and is very soluble, wherein intravenous (iv) administration is used. LD50 values at 1, 2, 5, and 60 days are determined by administering graded doses of the drug dissolved in physiological saline immediately prior to injection.

[7] = test system: BALB/c female mice; experiment: Determination of LD50; type: in vivo; conditions: Balb/c female mice 3 months of age; ip (or iv) injection
Method: as §1

[8] = test system: SCCVII carcinomas; experiment: In vivo assay for activity in combination with radiation; set-up: species or system C3H mice; conditions: fixed radiation dose 20 Gy, 2 hr after to 3 hr before drug injection; FIG. 2
[9] = test system: Chinese hamster ovary (CHO) cells; experiment: Aerobic radiosensitization of CHO cells by hypoxic pre- or post-treatment; type: cell-based; conditions: for cell survival after drug treatment alone: 20 μM, hypoxic
Source text: The sensitization was predominantly a change in the slope of the radiation survival curve. Do decreased from 1.34 Gy (95% confidence limits: 1.09-1.76 Gy) to 0.80 Gy (95% confidence limits: 0.73-0.88 Gy), based on least-squares regression analysis of pooled data for the exponential portions of the survival curves for control and treated cells. However, sensitization at low radiation doses was also readily apparent.

[10] = test system: SCCVII tumor; experiment: Enhanced tumor cell toxicity using hydralazine; type: in vivo, mice; conditions: FIG. 3
Method: For this assay, SCCVII carcinomas in female C3H mice weighing 20-25 g were used. These mice were bred under specific pathogen-free conditions and were 3-4 months old at the beginning of each experiment. The SCCVII tumor was grown intradermally in the flank from an inoculation of 2×10^5 tumor cells taken from the 2nd-8th in vitro passage of the tumor cells after removal from the previous in vivo tumor. Two tumors per mouse were implanted, and were used as subject tumors when they reached a volume of approximately 100 ml. At this point the tumors contained approximately 20% hypoxic cells.
The amount of cell killing was judged by survival rate of dissected and cultured tumor cells as follows. The tumor-bearing mice were killed 24 hr after irradiation, and tumors were dissected from the skin, cut into several pieces, and made into a fine brei by high-speed chopping with a razor blade attached to a jigsaw. The brei was added to 30 ml of Hank's buffered salt solution (HBSS) containing 0.02% DNase, 0.05% promase, and 0.02% collagenase. The suspension was stirred for 30 min at 37° C., filtered, and centrifuged at 1,600 rmp for 10 min at 4° C. […] Suitable dilutions of this serum plated into 60- or 100-mm polystyrene petri dishes (Lux Scientific Corp) in 5 or 15 ml of medium. After incubation for 13 days, the colonies were fixed and stained, and those containing 50 cells or more were counted. […]

[11] = test system: SCCVII tumor; experiment: Fractionated radiotherapy of SCCVII tumors (8 x 2.5 Gy in four days); conditions: SR 2508 1000 mg/kg before each dose; for effect on growth delay of irradiated tumors: compound 22 0.08 mmole/kg alone before or with HDZ after irradiation, FIG. 6; for effect on radiation response, clonogenic tumor cell survival: compound 22 0.08 mmole/kg alone or with HDZ, FIG. 5
Source text: Our protocol was to use eight doses of 2.5 Gy/dose in four days (irradiating 2×/day). […] We used two different types of controls. […] We assayed the efficacies of the treatments using clonogenic cell survival and also regrowth delay.

[12] = test system: aerobic and hypoxic cells in culture (human, mouse, and hamster); experiment: Cytotoxicity tests on aerobic and hypoxic cells in culture; type: cell-based
Method: The cells in spinner flasks were gassed for one hour at 37° C. with either air or nitrogen containing 5% CO2 prior to adding the specified amounts of the drug.

In the case of `CCCCCCCCCCc1ccc2nc(N)n[n+]([O-])c2c1`, the melting point is reported as 177 °C (dec.).

`NC(=O)c1ccc2nc(N)n[n+]([O-])c2c1` gave a melting point of 300 °C.

In the case of `CC(=NO)c1ccc2nc(N)n[n+]([O-])c2c1`, the melting point is reported as 278 °C (dec.).

With “6(7)-methoxy-3-amino-1,2,4-benzotriazine 1,4-dioxide” the C1.6 [1] was “˜1.0 mM”.

In the case of `[O-][n+]1nc(O)[n+]([O-])c2ccccc21` [3-hydroxy-1,2,4-benzotriazine 1,4-dioxide], the C1.6 [1] is reported as “˜2.0 mM”.

`Nc1nc2ccc(Cl)cc2[n+]([O-])n1` [7-chloro-3-amino-1,2,4-benzotriazine 1-oxide] gave a C1.6 [1] of 3.3 mM.

In the case of `Nc1n[n+]([O-])c2cc([N+](=O)[O-])ccc2[n+]1[O-]` [Compound 14, 7-nitro-3-amino-1,2,4-benzotriazine 1,4-dioxide], the E1/2 [2] is reported as −133 mV, the “cytotoxicity against hypoxic HA-1 tumor cells in vitro compared to 22” value (“cytotoxicity … compared to 22” below) [3] is reported as “significantly enhanced cytotoxicity” and the “RHT (Relative Hypoxic Cytoxicity)” value [3] is reported as 2. For the same molecule, the “HCR (Hypoxic Cytoxicity Ratio)” value [3] was 140.

In the case of `CCN(CC)CCCNc1n[n+]([O-])c2ccccc2[n+]1[O-]` [Compound 18a, 3-(3-N,N-diethylaminopropylamino)-1,2,4-benzotriazine 1,4-dioxide], the logP [4] is reported as -1.34, the E1/2 [2] is reported as −348 mV and the “cytotoxicity … compared to 22” value [3] is reported as “significantly enhanced cytotoxicity”. The solubility ([5]; read-out: Solubility) was over 181 mM and the LD50 [6] was 250 µmol/kg.

In the case of `CCN(CC)CCNc1n[n+]([O-])c2cc([N+](=O)[O-])ccc2[n+]1[O-].Cl` [Compound 21, 7-nitro-3-(2-N,N-diethylaminoethylamino)-1,2,4-benzotriazine 1,4-dioxide hydrochloride], the “Log P” value [4] is reported as −0.20, the E1/2 [2] is reported as −140 mV and the “cytotoxicity … compared to 22” value [3] is reported as “significantly enhanced cytotoxicity”. The “RHT (Relative Hypoxic Cytoxicity)” value [3] was 3, the “HCR (Hypoxic Cytoxicity Ratio)” value [3] was 211 and the solubility [5] was 96.40 mM. It also gave an LD50 [7] of 0.40.

With `Nc1n[n+]([O-])c2ccccc2[n+]1[O-]` [Compound 22, 3-amino-1,2,4-benzotriazine 1,4-dioxide] the “tumor cell killing combined with radiation compared to radiation only” value [8] was “enhanced cell killing compared to radiation only”, the “cell survival after drug treatment alone” value ([9]; 1.0 h preirradiation exposure) was “approximately 32%” and the “cell survival after drug treatment alone” value ([9]; 1.5 h postirradiation treatment) was 23%. For the same molecule, the “cell survival after drug treatment alone” value ([9]; 1.5 h preirradiation exposure) was about 19%, the “cell survival after drug treatment alone” value ([9]; 2.0 h preirradiation exposure) was about 8% and the “cell survival after drug treatment alone” value ([9]; 2.5 h preirradiation exposure) was about 2%. The “Do of the radiation survival curve of treated cells” value ([9]; pooled data of treated cells, control 1.34 Gy, 95% confidence limits 0.73-0.88 Gy) was 0.80 Gy, the “factor by which survival was reduced” value ([10]; combination with hydralazine) was 10^3 and the “cell killing in the SCCVII tumor, agent alone” value ([10]; single agent) was “neither hydralazine nor the aforementioned benzotriazine compound produced any significant cell killing”. For the same molecule, the “effect on growth delay of irradiated tumors” value [11] was “large increase in effect compared to radiation or drug alone”, the “effect on radiation response, clonogenic tumor cell survival” value [11] was “large enhancement of the radiation response” and the “drug concentration required under hypoxia for equal cell killing, as share of the aerobic concentration” value [12] was 1 to 2%.

With `O=C(Cn1ccnc1[N+](=O)[O-])NCCO` [SR 2508, reference compound] the “effect on growth delay of irradiated tumors” value [11] was “no radiosensitizing effect” and the “effect on radiation response, clonogenic tumor cell survival” value [11] was “no effect”.
